Measurements: patent publication US10576085B2, “Substituted aminopurine compounds, compositions thereof, and methods of treatment therewith” (Signal Pharmaceuticals, LLC, priority 2016, dated 2020)

System: cancer cell lines of Table 2
Experiment: Multiplexed cytotoxicity assay: apoptosis (activated caspase-3; Cal_X2, Cal_X5, Max_Fold_Change)
Format: cell-based
Description: Cells are grown in RPMI1640, 10% FBS, 2 mM L-alanyl-L-Glutamine, 1 mM Na pyruvate or a special medium in a humidified atmosphere of 5% CO2 at 37° C. Cells are seeded into 384-well plates and incubated in a humidified atmosphere of 5% CO2 at 37° C. Compounds are added 24 h post cell seeding. At the same time, a time zero untreated cell plate is generated. After a 72 hour incubation period, cells are fixed and stained with fluorescently labeled antibodies and nuclear dye to allow visualization of nuclei, apoptotic cells and mitotic cells. Apoptotic cells are detected using an anti-active caspase-3 antibody. Mitotic cells are detected using an anti phospho-histone-3 antibody. Compounds are serially diluted 3.16-fold and assayed over 10 concentrations in a final assay concentration of 0.1% DMSO from the highest test concentration of 10 μM. Automated fluorescence microscopy was carried out using a Molecular Devices ImageXpress Micro XL high-content imager, and images are collected with a 4× objective.
The activated caspase-3 marker labels cells from early to late stage apoptosis. Concentrations of test compound that cause a 5-fold induction in the caspase-3 signal (Cal_X5) indicate significant apoptosis induction. The maximal induction of caspase 3 by compound in comparison with DMSO control is reported as Max_Fold_Change.
In Another Experiment, Cells were Grown in RPMI1640, 10% FBS, 2 mM L-alanyl-L-Glutamine, 1 mM Na pyruvate or a special medium in a humidified atmosphere of 5% CO2 at 37° C. Cells were seeded into 384-well plates and incubated in a humidified atmosphere of 5% CO2 at 37° C. Compounds were added 24 h post cell seeding. At the same time, a time zero untreated cell plate was generated. After a 72 hour incubation period, cells were fixed and stained with fluorescently labeled antibodies and nuclear dye to allow visualization of nuclei, apoptotic cells and mitotic cells. Apoptotic cells were detected using an anti-active caspase-3 antibody. Mitotic cells were detected using an anti phospho-histone-3 antibody. Compounds were serially diluted 3.16-fold and assayed over 10 concentrations in a final assay concentration of 0.1% DMSO from the highest test concentration of 10 μM. Automated fluorescence microscopy was carried out using a Molecular Devices ImageXpress Micro XL high-content imager, and images were collected with a 4× objective.
The activated caspase-3 marker labels cells from early to late stage apoptosis. Concentrations of test compound that cause a 2-fold (Cal-X2) or 5-fold induction in the caspase-3 signal (Cal_X5) indicated significant apoptosis induction. The maximal induction of caspase 3 by compound in comparison with DMSO control was reported as Max_Fold_Change.

In the case of `C[C@]1(C(N)=O)CC[C@@H](n2c(Nc3c(Cl)cc(Cl)cc3Cl)nc3cnc(N[C@@H]4CCOC[C@H]4F)nc32)CC1` [Compound 1, cis-4-[2-{[(3S,4R)-3-fluorooxan-4-yl]amino}-8-(2,4,6-trichloroanilino)-9H-purin-9-yl]-1-methyl cyclohexane-1-carboxamide], the CalX2 (639V, Bladder) is reported as 0.0841 µM, the CalX5 (639V, Bladder) is reported as 0.465 µM and the Max fold change (639V, Bladder) is reported as 6.33. The CalX2 (647V, Bladder) was 2.7413 µM, the CalX5 (647V, Bladder) was 4.45 µM and the Max fold change (647V, Bladder) was 19.29. The CalX2 (769P, Kidney) was 0.2023 µM, the CalX5 (769P, Kidney) was 5.11 µM and the Max fold change (769P, Kidney) was 5.67. The CalX2 (786O, Kidney) was 10 µM, the CalX5 (786O, Kidney) was 10 µM and the Max fold change (786O, Kidney) was 0.83. The CalX2 (A7, Skin, Melanoma) was 5.0814 µM, the CalX5 (A7, Skin, Melanoma) was 9.4 µM and the Max fold change (A7, Skin, Melanoma) was 5.51. For the same compound, the CalX2 (A101D, Skin, Melanoma) was 0.4207 µM, the CalX5 (A101D, Skin, Melanoma) was 3.71 µM and the Max fold change (A101D, Skin, Melanoma) was 7.93. It also gave a CalX2 (A375, Skin, Melanoma) of 0.0673 µM, a CalX5 (A375, Skin, Melanoma) of 0.0827 µM and a Max fold change (A375, Skin, Melanoma) of 103.79. It also gave a CalX2 (A498, Kidney) of 0.5562 µM, a CalX5 (A498, Kidney) of 10 µM and a Max fold change (A498, Kidney) of 4.72. The CalX2 (A704, Kidney) was 10 µM, the CalX5 (A704, Kidney) was 10 µM and the Max fold change (A704, Kidney) was 0.96. It also gave a CalX2 (A2058, Skin, Melanoma) of 0.065 µM, a CalX5 (A2058, Skin, Melanoma) of 0.204 µM and a Max fold change (A2058, Skin, Melanoma) of 11.68. The CalX2 (ACHN, Kidney) was 0.78 µM, the CalX5 (ACHN, Kidney) was 10 µM and the Max fold change (ACHN, Kidney) was 2.97. The CalX2 (AU565, Breast) was 3.8749 µM, the CalX5 (AU565, Breast) was 7.14 µM and the Max fold change (AU565, Breast) was 14.18. The CalX2 (BC1, Lymphoma) was 5.1005 µM, the CalX5 (BC1, Lymphoma) was 6.54 µM and the Max fold change (BC1, Lymphoma) was 8.72. The CalX2 (BCP1, Lymphoma) was 4.8663 µM, the CalX5 (BCP1, Lymphoma) was 7.36 µM and the Max fold change (BCP1, Lymphoma) was 6.56. The CalX2 (BFTC905, Bladder) was 0.0179 µM, the CalX5 (BFTC905, Bladder) was 0.0414 µM and the Max fold change (BFTC905, Bladder) was 45.3. For the same compound, the CalX2 (BT20, Breast) was 10 µM, the CalX5 (BT20, Breast) was 10 µM and the Max fold change (BT20, Breast) was 1.81. The CalX2 (BT474, Breast) was 10 µM, the CalX5 (BT474, Breast) was 10 µM and the Max fold change (BT474, Breast) was 0.94. It also gave a CalX2 (BV173, Leukemia) of 0.4959 µM, a CalX5 (BV173, Leukemia) of 10 µM and a Max fold change (BV173, Leukemia) of 2.91. The CalX2 (C32, Skin, Melanoma) was 0.0451 µM, the CalX5 (C32, Skin, Melanoma) was 0.0778 µM and the Max fold change (C32, Skin, Melanoma) was 110.9. It also gave a CalX2 (C32TG, Skin, Melanoma) of 0.0608 µM, a CalX5 (C32TG, Skin, Melanoma) of 0.117 µM and a Max fold change (C32TG, Skin, Melanoma) of 42.82. For the same compound, the CalX2 (CA46, Lymphoma) was 3.2395 µM, the CalX5 (CA46, Lymphoma) was 8.08 µM and the Max fold change (CA46, Lymphoma) was 9.46. The CalX2 (CAKI1, Kidney) was 0.2015 µM, the CalX5 (CAKI1, Kidney) was 10 µM and the Max fold change (CAKI1, Kidney) was 4.12. For the same compound, the CalX2 (CAKI2, Kidney) was 0.1631 µM, the CalX5 (CAKI2, Kidney) was 0.449 µM and the Max fold change (CAKI2, Kidney) was 6.26. For the same compound, the CalX2 (CCRFCEM, Leukemia) was 3.4279 µM, the CalX5 (CCRFCEM, Leukemia) was 6.95 µM and the Max fold change (CCRFCEM, Leukemia) was 12.74. It also gave a CalX2 (CEMC1, Leukemia) of 4.1828 µM, a CalX5 (CEMC1, Leukemia) of 5.22 µM and a Max fold change (CEMC1, Leukemia) of 11.27. The CalX2 (CHL1, Skin, Melanoma) was 1.2376 µM, the CalX5 (CHL1, Skin, Melanoma) was 10 µM and the Max fold change (CHL1, Skin, Melanoma) was 3.46. The CalX2 (CMLT1, Leukemia) was 0.0948 µM, the CalX5 (CMLT1, Leukemia) was 10 µM and the Max fold change (CMLT1, Leukemia) was 4.85. It also gave a CalX2 (COLO829, Skin, Melanoma) of 0.0421 µM, a CalX5 (COLO829, Skin, Melanoma) of 0.125 µM and a Max fold change (COLO829, Skin, Melanoma) of 24.28. It also gave a CalX2 (CROAP2, Lymphoma) of 2.9603 µM, a CalX5 (CROAP2, Lymphoma) of 4.2 µM and a Max fold change (CROAP2, Lymphoma) of 50.79. It also gave a CalX2 (D283MED, CNS, Medulloblastoma) of 8.3456 µM, a CalX5 (D283MED, CNS, Medulloblastoma) of 10 µM and a Max fold change (D283MED, CNS, Medulloblastoma) of 2.23. It also gave a CalX2 (D341MED, CNS, Medulloblastoma) of 7.7855 µM, a CalX5 (D341MED, CNS, Medulloblastoma) of 10 µM and a Max fold change (D341MED, CNS, Medulloblastoma) of 2.14. It also gave a CalX2 (DAOY, CNS, Medulloblastoma) of 3.2773 µM, a CalX5 (DAOY, CNS, Medulloblastoma) of 5.22 µM and a Max fold change (DAOY, CNS, Medulloblastoma) of 16.68. For the same compound, the CalX2 (DAUDI, Lymphoma) was 3.9392 µM, the CalX5 (DAUDI, Lymphoma) was 5.33 µM and the Max fold change (DAUDI, Lymphoma) was 10.08. The CalX2 (DB, Lymphoma) was 6.1153 µM, the CalX5 (DB, Lymphoma) was 6.5 µM and the Max fold change (DB, Lymphoma) was 7.11. The CalX2 (DOHH2, Lymphoma) was 2.4833 µM, the CalX5 (DOHH2, Lymphoma) was 3.99 µM and the Max fold change (DOHH2, Lymphoma) was 20.41. The CalX2 (EB2, Lymphoma) was 5.7381 µM, the CalX5 (EB2, Lymphoma) was 10 µM and the Max fold change (EB2, Lymphoma) was 4.16. For the same compound, the CalX2 (EB3, Lymphoma) was 6.1469 µM, the CalX5 (EB3, Lymphoma) was 7.66 µM and the Max fold change (EB3, Lymphoma) was 5.5. The CalX2 (EM2, Leukemia) was 10 µM, the CalX5 (EM2, Leukemia) was 10 µM and the Max fold change (EM2, Leukemia) was 1.55. For the same compound, the CalX2 (G361, Skin, Melanoma) was 0.0428 µM, the CalX5 (G361, Skin, Melanoma) was 0.12 µM and the Max fold change (G361, Skin, Melanoma) was 24.48. It also gave a CalX2 (G401, Kidney) of 0.0717 µM, a CalX5 (G401, Kidney) of 0.179 µM and a Max fold change (G401, Kidney) of 30.87. It also gave a CalX2 (G402, Kidney) of 0.0162 µM, a CalX5 (G402, Kidney) of 0.637 µM and a Max fold change (G402, Kidney) of 7.34. The CalX2 (GA10, Lymphoma) was 0.6477 µM, the CalX5 (GA10, Lymphoma) was 1.94 µM and the Max fold change (GA10, Lymphoma) was 6.49. The CalX2 (H9, Lymphoma) was 0.0222 µM, the CalX5 (H9, Lymphoma) was 0.4 µM and the Max fold change (H9, Lymphoma) was 7.33. The CalX2 (HEL9217, Leukemia) was 3.2991 µM, the CalX5 (HEL9217, Leukemia) was 6.57 µM and the Max fold change (HEL9217, Leukemia) was 6.23. The CalX2 (HEPG2, Liver) was 0.0041 µM, the CalX5 (HEPG2, Liver) was 0.0108 µM and the Max fold change (HEPG2, Liver) was 62.47. It also gave a CalX2 (HLE, Liver) of 0.8174 µM, a CalX5 (HLE, Liver) of 10 µM and a Max fold change (HLE, Liver) of 2.5. The CalX2 (HLF, Liver) was 10 µM, the CalX5 (HLF, Liver) was 10 µM and the Max fold change (HLF, Liver) was 1.95. It also gave a CalX2 (HMCB, Skin, Melanoma) of 10 µM, a CalX5 (HMCB, Skin, Melanoma) of 10 µM and a Max fold change (HMCB, Skin, Melanoma) of 1.8. For the same compound, the CalX2 (HS294T, Skin, Melanoma) was 0.154 µM, the CalX5 (HS294T, Skin, Melanoma) was 2.15 µM and the Max fold change (HS294T, Skin, Melanoma) was 5.74. The CalX2 (HS445, Lymphoma) was 4.9128 µM, the CalX5 (HS445, Lymphoma) was 7.7 µM and the Max fold change (HS445, Lymphoma) was 5.65.
